Measured values taken from patent US9617256B2 (priority 2007, dated 2017).
Converted amounts (≈) assume the structure as drawn. Read-outs that look alike come from different tables or passages of the source.

Assays:
[1] = test system: APAE006 (strain of P. aeruginosa in which all efflux pumps are inactivated); experiment: microbe, parasite or virus in culture; assay type: cell-based; settings: Pseudomonas aeruginosa, read-out: MIC APAE006, APAE006, all efflux pumps inactivated
Procedure, shortened: (§1)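 (ambient air) in cation-adjusted MHB; inoculum from 0.5 McFarland suspensions, final 3×10^5–7×10^5 CFU/mL; 2-fold serial drug dilutions per CLSI. APAE006: P. aeruginosa with all efflux pumps inactivated.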

AECO001 (ATCC25922) = experiment: MIC broth microdilution, AECO001; assay type: cell-based, E. coli; settings: Escherichia coli
Procedure, shortened: (§2)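 CLSI-guided microdilution: bacteria passaged overnight at 35° C. on Mueller-Hinton agar, tested in cation-adjusted broth at a final 3×10^5–7×10^5 CFU/mL across 2-fold drug dilutions, read after 18-24 h at 35° C.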

APAE001 (ATCC27853) = experiment: MIC broth microdilution, APAE001; assay type: cell-based, P. aeruginosa; settings: Pseudomonas aeruginosa, ATCC27853, read-out: MIC APAE001, APAE001 (ATCC27853)
Procedure, shortened: as §2

[2] = test system: AECO063 (ATCC25922 bearing an acrAB mutation); experiment: microbe, parasite or virus in culture; assay type: cell-based, E. coli; settings: Escherichia coli, ATCC25922, read-out: MIC AECO063
Procedure, shortened: as §2

[3] = test system: ASAU001 (laboratory strain of S. aureus, ATCC29213); experiment: MIC broth microdilution, ASAU001; assay type: cell-based; settings: Staphylococcus aureus, ATCC29213, read-out: MIC ASAU001
Procedure, shortened: as §2

[4] = test system: APAE006 in the presence of 8 micrograms per milliliter of polymyxin B nonapeptide; assay type: cell-based, P. aeruginosa; settings: APAE006 with 8 micrograms per milliliter polymyxin B nonapeptide
Procedure, shortened: as §1

[5] = test system: AABA1060 (clinical isolate of Acinetobacter baumannii); experiment: MIC broth microdilution, AABA1060; assay type: cell-based; settings: Acinetobacter baumannii, read-out: MIC AABA1060
Procedure, shortened: as §2

[6] = ATCC25922, read-out: MIC AECO001
[7] = ATCC25922, read-out: MIC AECO001 HSA AGP

| SMILES | MIC [1] | MIC (AECO001 (ATCC25922); [6]) | MIC (AECO001 (ATCC25922); [7]) | MIC (APAE001 (ATCC27853)) | MIC [2] | MIC [3] | MIC APAE006 + PMBN [4] | MIC [5] |
| --- | --- | --- | --- | --- | --- | --- | --- | --- |
| CCOCc1ccc(C#CC#Cc2ccc(C(=O)N[C@H](C(=O)NO)C(C)(C)O)cc2)cc1 [Example 82-21] | < 2 µg/mL | < 2 µg/mL | 2 to 16 µg/mL (≈ 4.6 to 36.8 µM) | 2 to 16 µg/mL (≈ 4.6 to 36.8 µM) | < 2 µg/mL | 16 to 64 µg/mL (≈ 36.8 to 147 µM) | A (MIC's of 2.0 μg/mL or less = A) | < 2 µg/mL |
| CC(C)(O)[C@H](NC(=O)c1ccc(C#CC#Cc2ccccn2)cc1)C(=O)NO [Example 88-7] | < 2 µg/mL | < 2 µg/mL | 2 to 16 µg/mL (≈ 5.3 to 42.4 µM) | 2 to 16 µg/mL (≈ 5.3 to 42.4 µM) | < 2 µg/mL | 16 to 64 µg/mL (≈ 42.4 to 170 µM) | A (MIC's of 2.0 μg/mL or less = A) | 2 to 16 µg/mL (≈ 5.3 to 42.4 µM) |
| C[C@@H](N)[C@H](NC(=O)c1ccc(C#CC#Cc2ccc(OC3CC3)cc2)cc1)C(=O)NO [Example 84-1, N-((1S,2R)-2-Amino-1-hydroxycarbamoyl-propyl)-4-[4-(4-cyclopropoxy-phenyl)-buta-1,3-diynyl]-benzamide] | 2 to 16 µg/mL (≈ 4.79 to 38.3 µM) | < 2 µg/mL | 2 to 16 µg/mL (≈ 4.79 to 38.3 µM) | 16 to 64 µg/mL (≈ 38.3 to 153 µM) | < 2 µg/mL | 16 to 64 µg/mL (≈ 38.3 to 153 µM) | A (MIC's of 2.0 μg/mL or less = A) | 16 to 64 µg/mL (≈ 38.3 to 153 µM) |
| C[C@@H](O)[C@H](NC(=O)c1ccc(/C=C/C#Cc2ccc(F)cc2)cc1)C(=O)NO [Example 114-11] | < 2 µg/mL | < 2 µg/mL | 16 to 64 µg/mL (≈ 41.8 to 167 µM) | 16 to 64 µg/mL (≈ 41.8 to 167 µM) | < 2 µg/mL | 16 to 64 µg/mL (≈ 41.8 to 167 µM) | A (MIC's of 2.0 μg/mL or less = A) | 2 to 16 µg/mL (≈ 5.23 to 41.8 µM) |
| C[C@@H](N)[C@H](NC(=O)c1ccc(C#CC#Cc2cnn(C)c2)cc1)C(=O)NO [Example 89-1, N-((2S,3R)-3-amino-1-(hydroxyamino)-1-oxobutan-2-yl)-4-((1-methyl-1H-pyrazol-4-yl)buta-1,3-diynyl)benzamide] | < 2 µg/mL | < 2 µg/mL | 2 to 16 µg/mL (≈ 5.47 to 43.8 µM) | < 2 µg/mL | < 2 µg/mL | 16 to 64 µg/mL (≈ 43.8 to 175 µM) | A (MIC's of 2.0 μg/mL or less = A) | 2 to 16 µg/mL (≈ 5.47 to 43.8 µM) |
| C[C@@H](N)[C@H](NC(=O)c1ccc(C#CC#Cc2ccc(CNCCF)cc2)cc1)C(=O)NO [Example 86-5] | < 2 µg/mL | < 2 µg/mL | 16 to 64 µg/mL (≈ 36.7 to 147 µM) | < 2 µg/mL | < 2 µg/mL | 16 to 64 µg/mL (≈ 36.7 to 147 µM) | A (MIC's of 2.0 μg/mL or less = A) | 2 to 16 µg/mL (≈ 4.58 to 36.7 µM) |
| CC(C)(O)[C@H](NC(=O)c1ccc(C#CC#Cc2ccc(CN3CCOCC3)cc2)cc1)C(=O)NO [Example 86-4] | < 2 µg/mL | < 2 µg/mL | 2 to 16 µg/mL (≈ 4.21 to 33.6 µM) | 2 to 16 µg/mL (≈ 4.21 to 33.6 µM) | < 2 µg/mL | 16 to 64 µg/mL (≈ 33.6 to 135 µM) | A (MIC's of 2.0 μg/mL or less = A) | 2 to 16 µg/mL (≈ 4.21 to 33.6 µM) |
| C[C@@H](N)[C@H](NC(=O)c1ccc(C#C/C=C/c2cccnc2)cc1)C(=O)NO [Example 106-4] | < 2 µg/mL | 2 to 16 µg/mL (≈ 5.49 to 43.9 µM) | 16 to 64 µg/mL (≈ 43.9 to 176 µM) | 2 to 16 µg/mL (≈ 5.49 to 43.9 µM) | < 2 µg/mL | 16 to 64 µg/mL (≈ 43.9 to 176 µM) | A (MIC's of 2.0 μg/mL or less = A) | 16 to 64 µg/mL (≈ 43.9 to 176 µM) |
| CC(C)CC#CC#Cc1ccc(C(=O)N[C@H](C(=O)NO)C(C)(C)N)cc1 [Example 91-22] | < 2 µg/mL | < 2 µg/mL | 2 to 16 µg/mL (≈ 5.63 to 45 µM) | 2 to 16 µg/mL (≈ 5.63 to 45 µM) | < 2 µg/mL | 2 to 16 µg/mL (≈ 5.63 to 45 µM) | A (MIC's of 2.0 μg/mL or less = A) | 2 to 16 µg/mL (≈ 5.63 to 45 µM) |
| CC(C)(O)[C@H](NC(=O)c1ccc(C#C/C=C/c2cccnc2)cc1)C(=O)NO [Example 106-5] | < 2 µg/mL | < 2 µg/mL | 2 to 16 µg/mL (≈ 5.27 to 42.2 µM) | 2 to 16 µg/mL (≈ 5.27 to 42.2 µM) | < 2 µg/mL | 16 to 64 µg/mL (≈ 42.2 to 169 µM) | A (MIC's of 2.0 μg/mL or less = A) | 2 to 16 µg/mL (≈ 5.27 to 42.2 µM) |
